Test results published in publication PMC3678512, “Synthesis and physicochemical characterization of novel phenotypic probes targeting the nuclear factor-kappa B signaling pathway” (Beilstein Journal of Organic Chemistry, 2013).
pIC50: −log10 of the molar value. In brackets after ≈: the same amount, converted by molar mass. Where two headings read alike, the source gives them in different places.

Legend:
[1] = test system: NF-κB transcriptional activity in HEK 293 cells; parameters: method as in PMID 20481485; conditions: NF-κB reporter, read-out: IC50 in the HEK 293 cell assay; cited from earlier work
PKCβ = test system: PKCβ; parameters: method as in PMID 20481485, PMID 20153655; conditions: 4 at concentrations up to 8 μM; cited from earlier work
[2] = Hepatic microsome stability, mouse; type: in vitro ADME; conditions: compound at 1 μM, 60 min
Experimental: (§1) The probes were evaluated using known in vitro ADME/T assays to understand their overall pharmacological properties (Table 2). […] The PAMPA (parallel artificial membrane permeability assay) assay is used as an in vitro model of passive, transcellular permeability. An artificial membrane immobilized on a filter is placed between a donor and acceptor compartment. […] It is not yet known whether it represents a species specific CPY450 inhibitor.

353 kinases = assay: KINOMEscan (DiscoveRx) selectivity profiling, panel; type: binding; conditions: 10 uM; out of the 353 kinases surveyed
Text: (§2) This probe was discovered after two separate screening campaigns totaling ~110,000 compounds.

[3] = Hepatic toxicity in immortalized human hepatocytes; type: cell-based; conditions: Fa2N-4 immortalized human hepatocytes, read-out: Hepatic toxicity LC50
Experimental: as §1

IKKβ = test system: IKKβ; parameters: method as in PMID 20481485, PMID 20153655; conditions: 4 at concentrations up to 8 μM; cited from earlier work
PKCθ = test system: PKCθ; parameters: method as in PMID 20481485, PMID 20153655; conditions: 4 at concentrations up to 8 μM; cited from earlier work
[4] = test system: NF-κB activation in 697 pre-B cell line; assay: NF-κB reporter gene assay in 697 pre-B cells (PMA/ionomycin induced); type: cell-based; conditions: read-out: Potency in 697 pre-B cell line (NF-κB reporter)
Text: (§3) Phenotypic screening for noncanonical NF-κB pathway selective inhibitors of IL-8 production in HEK 293, HEK 293T (ML029) and 697 pre-B cells (ML236 and ML237): Most pathways for NF-κB activation converge on the IκB kinases (IKKs), and more than nine signaling routes have been identified. While IKKs therefore represent attractive targets for drug discovery programs, the selectivity envisioned for an acceptable therapeutic index has remained elusive as inhibitors of IKKs indiscriminately suppress all known NF-κB activation pathways. Within this project, new probes were sought that were not active via the currently known receptor-driven pathways and IκB kinases, but attenuated NF-κB transcriptional activity as measured by a luciferase-based reporter gene assay with validation using a panel of known receptor and kinase-based counter screens.
(§4) Therefore, an HTS campaign was initiated to identify compounds active in these specific cell subtypes by using the established HTS NF-κB reporter gene assay format. This included screening of a larger (~330,600 compound) MLSMR collection to ensure identification of additional chemical scaffolds not previously available. From this campaign two new cell-active NF-κB inhibitors were derived that were both selective against the NF-κB pathway induced by known PKC activators (phorbol myristic acetate (PMA)/ionomycin) and were selective toward the 697 pre-B cell line. It is interesting to note that no compounds meeting probe selectivity criteria were identified within the T cell (HEK 293T) specific assay. The first oxadiazole-based probe ML236 (8) was potent (0.035 μM) in the 697 pre-B cell line and >400-fold selective over both the NF-κB activation in HEK 293T cells and against TNFα-mediated NF-κB activation. In comparison, the second oxazole-based probe 12 is also potent (0.2 μM) in the 697 pre-B cell line and >400-fold selective over both the NF-κB activation in HEK 293T cells and against TNFα mediated NF-κB activation as measured in our reporter gene assay format.

JAK2 = molecular target: T1, JAK2 (Homo sapiens, UniProt O60674); assay: KINOMEscan (DiscoveRx) selectivity profiling, JAK2; type: binding
T1 construct: purchased DiscoveRx
T1 sequence (O60674 whole entry): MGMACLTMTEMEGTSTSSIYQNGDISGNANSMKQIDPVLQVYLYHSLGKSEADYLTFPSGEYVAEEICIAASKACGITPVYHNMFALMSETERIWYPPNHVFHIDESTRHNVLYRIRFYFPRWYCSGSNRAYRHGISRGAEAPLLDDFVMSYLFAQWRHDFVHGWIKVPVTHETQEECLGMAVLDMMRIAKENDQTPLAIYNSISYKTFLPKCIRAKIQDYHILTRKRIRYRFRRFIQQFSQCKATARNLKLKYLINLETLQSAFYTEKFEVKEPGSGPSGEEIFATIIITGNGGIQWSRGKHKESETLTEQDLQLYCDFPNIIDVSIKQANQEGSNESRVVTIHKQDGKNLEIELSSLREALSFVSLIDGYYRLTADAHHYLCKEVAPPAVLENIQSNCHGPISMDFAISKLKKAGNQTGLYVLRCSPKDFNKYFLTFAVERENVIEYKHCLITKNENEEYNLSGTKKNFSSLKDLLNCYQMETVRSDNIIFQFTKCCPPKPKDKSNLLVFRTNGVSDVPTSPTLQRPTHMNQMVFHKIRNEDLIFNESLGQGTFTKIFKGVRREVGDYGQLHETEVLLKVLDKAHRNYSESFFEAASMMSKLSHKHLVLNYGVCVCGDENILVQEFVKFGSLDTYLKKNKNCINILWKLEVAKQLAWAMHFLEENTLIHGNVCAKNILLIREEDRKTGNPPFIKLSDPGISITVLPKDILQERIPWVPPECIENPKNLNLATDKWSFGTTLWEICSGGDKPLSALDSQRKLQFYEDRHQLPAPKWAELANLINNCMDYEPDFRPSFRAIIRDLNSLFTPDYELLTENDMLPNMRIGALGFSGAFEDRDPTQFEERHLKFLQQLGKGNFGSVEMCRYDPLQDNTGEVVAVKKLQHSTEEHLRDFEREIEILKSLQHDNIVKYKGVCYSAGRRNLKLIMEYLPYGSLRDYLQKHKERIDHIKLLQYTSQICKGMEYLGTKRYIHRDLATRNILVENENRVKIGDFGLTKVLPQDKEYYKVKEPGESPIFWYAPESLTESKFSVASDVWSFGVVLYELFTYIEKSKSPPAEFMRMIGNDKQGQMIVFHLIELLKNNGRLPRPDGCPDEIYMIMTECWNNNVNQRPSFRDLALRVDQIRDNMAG
Text: as §2

[5] = PAMPA (parallel artificial membrane permeability assay); type: in vitro ADME; conditions: for PAMPA Pe, donor pH 5.0: donor pH 5.0, acceptor pH 7.4, compound at 50 μM; for PAMPA Pe, donor pH 6.2: donor pH 6.2, acceptor pH 7.4, compound at 50 μM; for PAMPA Pe, donor pH 7.4: donor pH 7.4, acceptor pH 7.4, compound at 50 μM
Experimental: as §1

Aqueous solubility = type: physicochemical; conditions: for Solubility (in words): across pH 5 to 7.4
Experimental: as §1

Raf = assay: KINOMEscan (DiscoveRx) selectivity profiling, Raf; type: binding; conditions: 10 uM
Text: as §2

TLK1 = molecular target: T2, TLK1 (Homo sapiens, UniProt Q9UKI8); assay: KINOMEscan (DiscoveRx) selectivity profiling, TLK1; type: binding
T2 construct: purchased DiscoveRx
T2 sequence (Q9UKI8 1-766): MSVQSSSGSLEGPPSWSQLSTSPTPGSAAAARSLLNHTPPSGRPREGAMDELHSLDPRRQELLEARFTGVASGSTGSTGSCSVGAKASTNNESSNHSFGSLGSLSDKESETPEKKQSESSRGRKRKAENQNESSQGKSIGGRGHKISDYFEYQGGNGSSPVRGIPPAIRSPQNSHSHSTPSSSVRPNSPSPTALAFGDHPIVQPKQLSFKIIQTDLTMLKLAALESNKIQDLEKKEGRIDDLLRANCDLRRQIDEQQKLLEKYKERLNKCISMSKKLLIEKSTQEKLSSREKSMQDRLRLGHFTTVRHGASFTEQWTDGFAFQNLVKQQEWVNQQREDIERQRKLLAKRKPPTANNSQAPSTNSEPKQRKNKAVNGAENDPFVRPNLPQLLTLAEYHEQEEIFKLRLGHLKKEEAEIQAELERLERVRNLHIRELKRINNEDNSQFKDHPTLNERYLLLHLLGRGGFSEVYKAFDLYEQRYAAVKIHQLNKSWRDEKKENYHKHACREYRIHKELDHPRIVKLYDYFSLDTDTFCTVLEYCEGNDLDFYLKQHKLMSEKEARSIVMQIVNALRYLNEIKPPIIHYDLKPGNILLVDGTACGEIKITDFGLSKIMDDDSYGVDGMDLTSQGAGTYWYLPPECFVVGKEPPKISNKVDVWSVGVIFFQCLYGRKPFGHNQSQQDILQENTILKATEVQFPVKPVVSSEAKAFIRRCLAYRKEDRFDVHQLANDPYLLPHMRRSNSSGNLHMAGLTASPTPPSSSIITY
Text: as §2

[6] = Hepatic microsome stability, human; type: in vitro ADME; conditions: for Hepatic microsome stability, human (% remaining): compound at 1 μM, 60 min
Experimental: as §1

[7] = test system: NF-κB activation in HEK 293T cells; assay: NF-κB reporter gene assay in HEK 293T cells; type: cell-based, human; conditions: for Selectivity over NF-κB activation in HEK 293T cells: relative to 697 pre-B cell line potency
Text: as §3, §4

[8] = test system: TNFα-mediated NF-κB activation; assay: TNFα-mediated NF-κB activation reporter gene assay; type: cell-based; conditions: relative to 697 pre-B cell line potency
Text: as §4

[9] = test system: NOD1 (γ-tri-DAP) dependent IL-8 secretion; assay: NOD1 (γ-tri-DAP) dependent IL-8 secretion; type: cell-based
[10] = test system: NOD2-dependent IL-8 secretion in MCF-7 cells; assay: NOD2-dependent IL-8 secretion in MCF-7 cells; type: cell-based
[11] = test system: TNF-α-dependent IL-8 secretion in MCF-7 cells; assay: TNF-α-dependent IL-8 secretion in MCF-7 cells; type: cell-based
[12] = aqueous medium, pH 6.2, aqueous buffer, read-out: Aqueous solubility pH 6.2
[13] = pH 5.0, read-out: Aqueous solubility pH 5.0
[14] = pH 7.4, read-out: Aqueous solubility pH 7.4
[15] = aqueous medium, aqueous buffer, pH 5.0, read-out: Aqueous solubility pH 5.0
[16] = aqueous medium, pH 7.4, aqueous buffer, read-out: Aqueous solubility pH 7.4

Compound | Hepatic microsome stability, mouse (% remaining) [2] | CC50 [3] | Suppression of IKKβ (IKKβ) | Suppression of PKCθ (PKCθ) | pIC50 [4] | PAMPA Pe, donor pH 5.0 [5] | PAMPA Pe, donor pH 6.2 [5] | PAMPA Pe, donor pH 7.4 [5] | Solubility (in words) (Aqueous solubility) | solubility (Aqueous solubility; [12]) | solubility (Aqueous solubility; [13]) | solubility (Aqueous solubility; [14]) | Hepatic microsome stability, human (% remaining) [6] | Selectivity against TNFα-mediated NF-κB activation [8] | solubility (Aqueous solubility; [15]) | solubility (Aqueous solubility; [16]) | Selectivity over NF-κB activation in HEK 293T cells [7] | other results
Cc1cc2nc(NCCCO)n(CC(=O)c3cc(C(C)(C)C)c(O)c(C(C)(C)C)c3)c2cc1C [Probe 4] | 0.5 % remaining | > 50 µM | failed to suppress | failed to suppress | < 4.52 | 299 10^−6 cm/s | 710 10^−6 cm/s | 441 10^−6 cm/s | good solubility | 1.1 µM (≈ 0.512 µg/mL) | 90 µM (≈ 41.9 µg/mL) | 1.5 µM (≈ 0.698 µg/mL) | 26 % remaining | – | – | – | – | pIC50 [1]: 7.15; Suppression of PKCβ (PKCβ): failed to suppress; Number of kinases inhibited >50% (353 kinases): 3; inhibition at 10 µM (JAK2): 53%; Raf inhibition (Raf): 57%; inhibition at 10 µM (TLK1): 70%; pIC50 ([7]; Homo sapiens, HEK 293T cells, read-out: Activity in HEK 293T cell line (NF-κB reporter)): < 4.52
CNC(=O)CCc1nc(-c2ccc(C(C)(C)C)cc2)no1 [Probe 8] | 4.9 % remaining | > 50 µM | – | – | 7.46 | 751 10^−6 cm/s | 755 10^−6 cm/s | 746 10^−6 cm/s | good solubility | 101 µM (≈ 29 µg/mL) | – | – | 100 % remaining | > 400 fold | 92 µM (≈ 26.4 µg/mL) | 103 µM (≈ 29.6 µg/mL) | > 400 fold | Metabolic stability in human hepatic microsomes (in words) ([6]; one hour of exposure): no apparent instability
CCOc1ccc(-c2nc(CSCC(=O)NC3CC3)c(C)o2)cc1 [Probe 12] | 0 % remaining | > 50 µM | – | – | 6.70 | 513 10^−6 cm/s | 541 10^−6 cm/s | 59 10^−6 cm/s | good solubility | 133 µM (≈ 46.1 µg/mL) | – | – | 22.7 % remaining | > 400 fold | 112 µM (≈ 38.8 µg/mL) | 160 µM (≈ 55.4 µg/mL) | > 400 fold | –
Cc1ccc(S(=O)(=O)n2c(N)nc3ccccc32)cc1 [Probe 13] | 0.8 % remaining | > 50 µM | – | – | – | 491 10^−6 cm/s | 562 10^−6 cm/s | 382 10^−6 cm/s | moderate solubility | – | 7.0 µM (≈ 2.01 µg/mL) | 7.0 µM (≈ 2.01 µg/mL) | 41.8 % remaining | – | – | – | – | Inhibition of NOD1 (γ-tri-DAP) dependent IL-8 secretion [9]: selectively inhibited IL-8 secretion; Inhibition of NOD2-dependent IL-8 secretion [10]: neither inhibited; solubility (Aqueous solubility; pH 6.2, read-out: Aqueous solubility pH 6.2): 5.9 µM (≈ 1.7 µg/mL); Inhibition of TNF-α-dependent IL-8 secretion [11]: neither inhibited
CN[C@@H]1C[C@H]2O[C@@](C)([C@@H]1OC)n1c3ccccc3c3c4c(c5c6ccccc6n2c5c31)C(=O)NC4 [staurosporine, reference compound] | – | – | potent inhibition | potent inhibition | – | – | – | – | – | – | – | – | – | – | – | – | – | –
